# Results: patent US11051515B2, “3-acyl-benzamides and their use as herbicides” (Bayer Aktiengesellschaft, priority 2017, dated 2021)
# Tests used:
# SETVI [1] = experiment: Pre-emergence action against SETVI; assay type: in vivo, Setaria viridis; settings: pre-emergence, dosage 320 g/ha, scored visually after 3 weeks vs untreated controls
# How it was run: (§1)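 Seeds sown in sandy loam in wood-fiber pots and covered with soil. Greenhouse growth; visual damage scored after 3 weeks versus untreated controls (100% = dead, 0% = like control).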
# HORMU = experiment: Pre-emergence action against HORMU; assay type: in vivo, Hordeum murinum; settings: Dosage 320 g/ha
# Excerpt: (§2) Seeds of monocotyledonous and dicotyledonous weed plants and crop plants are laid out in sandy loam soil in wood-fiber pots and covered with soil. The compounds of the invention, formulated in the form of wettable powders (WP) or as emulsion concentrates (EC), are then applied to the surface of the covering soil in the form of an aqueous suspension or emulsion at a water application rate equating to […], with addition of 0.2% wetting agent. After the treatment, the pots are placed in a greenhouse and kept under good growth conditions for the trial plants. The damage to the test plants is scored visually after a test period of 3 weeks by comparison with untreated controls (herbicidal activity in percent (%): 100% activity=the plants have died, 0% activity=like control plants).
# VIOTR [2] = experiment: Pre-emergence action against VIOTR; assay type: in vivo, Viola tricolor; settings: Dosage 320 g/ha, pre-emergence
# How it was run: as §1
# ECHCG [3] = experiment: Post-emergence action against ECHCG; assay type: in vivo, Echinochloa crus-galli; settings: post-emergence, dosage 80 g/ha, visual assessment about 3 weeks after treatment vs untreated controls
# How it was run: (§3)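 Post-emergence foliar spray on greenhouse plants at the one-leaf stage, using wettable-powder or emulsion-concentrate formulations in water (600 to […], plus 0.2% wetting agent). Damage scored by eye roughly 3 weeks later against untreated plants: 0% = like control, 100% = dead.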
# POLCO [4] = experiment: Post-emergence action against POLCO; assay type: in vivo, Polygonum convolvulus; settings: post-emergence, dosage 80 g/ha
# How it was run: as §3
# STEME [5] = experiment: Post-emergence action against STEME; assay type: in vivo, Stellaria media; settings: post-emergence, dosage 80 g/ha
# How it was run: as §3
# PHBPU [6] = experiment: Post-emergence action against PHBPU; assay type: in vivo, Pharbitis purpurea; settings: post-emergence, dosage 80 g/ha
# How it was run: as §3
# VERPE [7] = experiment: Pre-emergence action against VERPE; assay type: in vivo, Veronica persica; settings: Dosage 320 g/ha, pre-emergence
# How it was run: as §1
# AMARE [8] = experiment: Pre-emergence action against AMARE; assay type: in vivo, Amaranthus retroflexus; settings: pre-emergence, dosage 320 g/ha, scored visually after 3 weeks vs untreated controls
# How it was run: as §1
# ABUTH [9] = experiment: Pre-emergence action against ABUTH; assay type: in vivo, Abutilon theophrasti; settings: pre-emergence, dosage 320 g/ha, scored visually after 3 weeks vs untreated controls
# How it was run: as §1
# AVEFA [10] = experiment: Pre-emergence action against AVEFA; assay type: in vivo, Avena fatua; settings: dosage 320 g/ha, scored visually after 3 weeks vs untreated controls
# How it was run: as §1
# SETVI [11] = experiment: Post-emergence action against SETVI; assay type: in vivo, Setaria viridis; settings: post-emergence, dosage 80 g/ha, visual assessment about 3 weeks after treatment vs untreated controls
# How it was run: as §3
# VIOTR [12] = experiment: Post-emergence action against VIOTR; assay type: in vivo, Viola tricolor; settings: post-emergence, dosage 80 g/ha
# How it was run: as §3
# ECHCG [13] = experiment: Pre-emergence action against ECHCG; assay type: in vivo, Echinochloa crus-galli; settings: pre-emergence, dosage 320 g/ha, scored visually after 3 weeks vs untreated controls
# How it was run: as §1
# ABUTH [14] = experiment: Post-emergence action against ABUTH; assay type: in vivo, Abutilon theophrasti; settings: post-emergence, dosage 80 g/ha, visual assessment about 3 weeks after treatment vs untreated controls
# How it was run: as §3
# MATIN [15] = experiment: Pre-emergence action against MATIN; assay type: in vivo, Matricaria inodora; settings: Dosage 320 g/ha, pre-emergence
# How it was run: as §1
# POLCO [16] = experiment: Pre-emergence action against POLCO; assay type: in vivo, Polygonum convolvulus; settings: Dosage 320 g/ha, pre-emergence
# How it was run: as §1
# CYPES [17] = experiment: Post-emergence action against CYPES; assay type: in vivo, Cyperus esculentus; settings: post-emergence, dosage 80 g/ha, visual assessment about 3 weeks after treatment vs untreated controls
# How it was run: as §3
# VERPE [18] = experiment: Post-emergence action against VERPE; assay type: in vivo, Veronica persica; settings: dosage 80 g/ha
# How it was run: as §3
# MATIN [19] = experiment: Post-emergence action against MATIN; assay type: in vivo, Matricaria inodora; settings: post-emergence, dosage 80 g/ha, visual assessment about 3 weeks after treatment vs untreated controls
# How it was run: as §3
# AMARE [20] = experiment: Post-emergence action against AMARE; assay type: in vivo, Amaranthus retroflexus; settings: post-emergence, dosage 80 g/ha, visual assessment about 3 weeks after treatment vs untreated controls
# How it was run: as §3
# STEME [21] = experiment: Pre-emergence action against STEME; assay type: in vivo, Stellaria media; settings: Dosage 320 g/ha, pre-emergence
# How it was run: as §1
# ALOMY [22] = experiment: Pre-emergence action against ALOMY; assay type: in vivo, Alopecurus myosuroides; settings: dosage 320 g/ha; pre-emergence; scored visually after 3 weeks vs untreated controls; 100% = plants have died, 0% = like control plants
# How it was run: as §1
# PHBPU [23] = experiment: Pre-emergence action against PHBPU; assay type: in vivo, Pharbitis purpurea; settings: Dosage 320 g/ha, pre-emergence
# How it was run: as §1
# CYPES [24] = experiment: Pre-emergence action against CYPES; assay type: in vivo, Cyperus esculentus; settings: pre-emergence, dosage 320 g/ha, scored visually after 3 weeks vs untreated controls
# How it was run: as §1
# LOLRI = experiment: Pre-emergence action against LOLRI; assay type: in vivo, Lolium rigidum; settings: dosage 320 g/ha, scored visually after 3 weeks vs untreated controls
# Excerpt: as §2
# AVEFA [25] = experiment: Post-emergence action against AVEFA; assay type: in vivo, Avena fatua; settings: post-emergence, dosage 80 g/ha, visual assessment about 3 weeks after treatment vs untreated controls
# How it was run: as §3
# ALOMY [26] = experiment: Post-emergence action against ALOMY; assay type: in vivo, Alopecurus myosuroides; settings: Dosage 80 g/ha, post-emergence
# How it was run: as §3
SMILES,"SETVI (Table B8, pre-emergence herbicidal activity) (SETVI [1]) [%]",Pre-emergence action against HORMU (HORMU) [%],Pre-emergence action against VIOTR (VIOTR [2]) [%],Post-emergence action against ECHCG (herbicidal action in percent) (ECHCG [3]) [%],Post-emergence action against POLCO (POLCO [4]),Post-emergence action against STEME (STEME [5]),Post-emergence action against PHBPU (PHBPU [6]),Pre-emergence action against VERPE (VERPE [7]) [%],Pre-emergence action against AMARE (herbicidal activity) (AMARE [8]) [%],Pre-emergence action against ABUTH (herbicidal activity) (ABUTH [9]) [%],Pre-emergence action against AVEFA (herbicidal activity) (AVEFA [10]) [%],Post-emergence action against VIOTR (VIOTR [12]),Pre-emergence action against ECHCG (herbicidal activity) (ECHCG [13]) [%],Post-emergence action against ABUTH (herbicidal action in percent) (ABUTH [14]) [%],Pre-emergence action against MATIN (MATIN [15]) [%],Post-emergence action against VERPE (VERPE [18]),Post-emergence action against MATIN (herbicidal action in percent) (MATIN [19]) [%],Pre-emergence action against STEME (STEME [21]) [%],Pre-emergence action against ALOMY (herbicidal activity in percent) (ALOMY [22]) [%],Pre-emergence action against PHBPU (PHBPU [23]) [%],further results
CCCn1nnnc1NC(=O)c1ccc(C(F)F)c(C(C)=O)c1SC [3-65],100,100,100,90,80,100,90,100,100,100,100,100,100,100,100,80,90,100,80,100,Post-emergence action against SETVI (herbicidal action in percent) (SETVI [11]): 100%; Pre-emergence action against POLCO (POLCO [16]): 100%; Post-emergence action against CYPES (herbicidal action in percent) (CYPES [17]): 80%; Post-emergence action against AMARE (herbicidal action in percent) (AMARE [20]): 90%
CCn1nnnc1NC(=O)c1ccc(C(F)F)c(C(C)=O)c1SC [2-65],100,80,100,80,100,100,90,100,100,100,100,100,100,100,90,80,100,100,100,100,Pre-emergence action against CYPES (herbicidal activity) (CYPES [24]): 90%; Post-emergence action against SETVI (herbicidal action in percent) (SETVI [11]): 100%; Pre-emergence action against POLCO (POLCO [16]): 90%; Post-emergence action against AMARE (herbicidal action in percent) (AMARE [20]): 100%
CCCC(=O)c1c(C(F)(F)F)ccc(C(=O)Nc2nnnn2CC)c1Cl [2-139],100,80,100,90,–,100,100,100,100,100,80,100,100,90,100,–,90,100,100,100,Pre-emergence action against CYPES (herbicidal activity) (CYPES [24]): 100%; Post-emergence action against AMARE (herbicidal action in percent) (AMARE [20]): 100%; Pre-emergence action against LOLRI (herbicidal activity) (LOLRI): 100%
CCn1nnnc1NC(=O)c1ccc(C(F)(F)F)c(C(=O)C(C)C)c1Cl [2-140],100,–,100,100,80,100,90,100,100,100,80,100,100,100,100,80,90,100,90,100,Post-emergence action against AVEFA (herbicidal action in percent) (AVEFA [25]): 80%; Post-emergence action against CYPES (herbicidal action in percent) (CYPES [17]): 80%; Post-emergence action against ALOMY (ALOMY [26]): 80%; Pre-emergence action against LOLRI (herbicidal activity) (LOLRI): 90%
